Measured values taken from US20230416221A1, “DIHYDROISOQUINOLINONE AND ISOINDOLINONE DERIVATIVES AND USES THEREOF” (HEFEI INSTITUTES OF PHYSICAL SCIENCE, CHINESE ACADEMY OF …, priority 2020, published 2023).
Like-named read-outs stand apart in the source and are kept apart here.

Legend:
[1] = system: acute myeloid leukemia cell line MV4-11; test: Growth of cancer cells, Cell Titer-Glo GI50, MV4-11; settings: read-out: GI50 MV4-11
[2] = system: human liver cancer cell line HepG2; test: Growth of cancer cells, Cell Titer-Glo GI50, HepG2; format: cell-based; settings: incubated for 72 hours
[3] = system: MOLM13 drug resistant strain MOLM13 BR1; test: Growth of drug resistant strain MOLM13 BR1, Cell Titer-Glo GI50; format: cell-based; settings: Homo sapiens, MOLM-13, BAY1251152-resistant MOLM13 strain, 72 hours
[4] = system: acute myeloid leukemia cell line MOLM13; test: Growth of cancer cells, Cell Titer-Glo GI50, MOLM13; format: cell-based; settings: incubated for 72 hours, Cell Titer-Glo
[5] = system: human colorectal cancer cell HCT116; test: Growth of cancer cells, Cell Titer-Glo GI50, HCT116; format: cell-based
[6] = system: human chronic myeloid leukemia cell K562; test: Growth of cancer cells, Cell Titer-Glo GI50, K562; format: cell-based; settings: incubated for 72 hours, Cell Titer-Glo, read-out: GI50 K562
[7] = system: human colorectal cancer cell DLD1; test: Growth of cancer cells, Cell Titer-Glo GI50, DLD1; format: cell-based
[8] = system: HepG2 drug resistant strain HepG2 CDK9 KI C20-1; test: Growth of drug resistant strain HepG2 KI C20-1, Cell Titer-Glo GI50; format: cell-based, human; settings: for GI50 HepG2 CDK9 KI C20-1: CDK9 resistant mutation knockin HepG2 monoclone, 72 hours, Cell Titer-Glo
CDK9 = CDK9 (Homo sapiens (Human), UniProt P50750); test: Binding activity of compound and CDK9, split luciferase system (C37-CL / CDK9-NL) in HEK-293T cells; format: cell-based
Sequence of CDK9 (P50750 whole entry, the tested form may be a part): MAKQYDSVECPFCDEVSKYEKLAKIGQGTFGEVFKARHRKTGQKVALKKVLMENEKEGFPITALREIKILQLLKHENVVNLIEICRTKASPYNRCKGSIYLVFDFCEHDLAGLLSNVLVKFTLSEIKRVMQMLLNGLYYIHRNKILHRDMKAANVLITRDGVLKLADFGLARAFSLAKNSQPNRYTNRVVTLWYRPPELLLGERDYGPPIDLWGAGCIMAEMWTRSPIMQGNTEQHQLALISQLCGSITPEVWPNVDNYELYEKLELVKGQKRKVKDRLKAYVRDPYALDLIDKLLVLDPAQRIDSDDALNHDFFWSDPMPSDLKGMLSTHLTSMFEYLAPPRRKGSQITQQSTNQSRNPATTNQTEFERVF
Excerpt: The plasmid of split luciferase system was constructed by molecular cloning technology. The N-terminal domain (NLuc) and C-terminal domain (CLuc) of luciferase were respectively cloned and inserted into the vector PCDNA3 to construct NLuc-PCDNA3 and CLuc-PCDNA3 vectors, and the polyclonal sites were reserved at both ends of the sequence. Then CDC37 and CDK9 were cloned into the corresponding vectors to construct C37-CL and CDK9-NL vectors. C37-CL plasmid sequence is shown in SEQ ID NO. 1. CDK9-NL plasmid sequence is shown in SEQ ID NO. 2.
The mixed transfection complex was added to the 10 cm cell culture dish and cultured at 37° C. and 5% CO2 for 24 hours. […] After counting, the transfected cells were placed in a 96-well white Corning cell culture plate (purchased from Corning, U.S.) with 100 μL, 5000 cells/well. After 12 hours, the medium was removed from the 96-well plate and 100 μL culture medium containing corresponding concentration of the testing compound was added, which was cultured continuously for 12 hours. After 12 hours, 20 μL Luciferase-Glo (purchased from Promega, U.S.) testing reagent was added to each well. After mixing, the […] value was detected using a microplate reader.

[9] = system: acute myeloid leukemia cell line MOLM14; test: Growth of cancer cells, Cell Titer-Glo GI50, MOLM14; format: cell-based; settings: incubated for 72 hours, Cell Titer-Glo, read-out: GI50 MOLM 14
lymphoma cell WSU-DLCL2 [10] = test: cells; settings: Homo sapiens, WSUDLCL2, 72 h, read-out: GI50 WSU-DLCL2
[11] = system: acute myeloid leukemia cell line OCI-AML-3; test: Growth of cancer cells, Cell Titer-Glo GI50, OCI-AML-3; format: cell-based; settings: Homo sapiens; incubated for 72 hours, Cell Titer-Glo; read-out: GI50 AML3
[12] = system: histiocytic lymphoma U-937; test: Growth of cancer cells, Cell Titer-Glo GI50, U937; format: cell-based; settings: Homo sapiens, U-937; incubated for 72 hours, Cell Titer-Glo; read-out: GI50 U937
[13] = system: human ovarian granulosa tumor cell COV434; test: Growth of cancer cells, Cell Titer-Glo GI50, COV434; format: cell-based; settings: read-out: GI50 COV434
[14] = system: cervical cancer cell HeLa; test: cells; settings: Homo sapiens, 72 h, read-out: GI50 HeLa
[15] = system: gastrointestinal stromal tumor GIST-T1; test: cells; settings: Homo sapiens, GISTT1, 72 h, read-out: GI50 GIST-T1
[16] = target: CDK9-L156F mut/CyclinT1 mutant protein (Homo sapiens (Human), UniProt P50750, L156F); test: Enzyme activity assay of CDK9 mutant protein inhibition in vitro, CDK9-L156F mut/CyclinT1
Sequence of CDK9-L156F mut/CyclinT1 mutant protein (P50750 whole entry L156F): as the sequence (P50750 whole entry, the tested form may be a part) above, with L156F counted along it
Sequence of CDK9-L156F mut/CyclinT1 mutant protein (O60563 whole entry partner): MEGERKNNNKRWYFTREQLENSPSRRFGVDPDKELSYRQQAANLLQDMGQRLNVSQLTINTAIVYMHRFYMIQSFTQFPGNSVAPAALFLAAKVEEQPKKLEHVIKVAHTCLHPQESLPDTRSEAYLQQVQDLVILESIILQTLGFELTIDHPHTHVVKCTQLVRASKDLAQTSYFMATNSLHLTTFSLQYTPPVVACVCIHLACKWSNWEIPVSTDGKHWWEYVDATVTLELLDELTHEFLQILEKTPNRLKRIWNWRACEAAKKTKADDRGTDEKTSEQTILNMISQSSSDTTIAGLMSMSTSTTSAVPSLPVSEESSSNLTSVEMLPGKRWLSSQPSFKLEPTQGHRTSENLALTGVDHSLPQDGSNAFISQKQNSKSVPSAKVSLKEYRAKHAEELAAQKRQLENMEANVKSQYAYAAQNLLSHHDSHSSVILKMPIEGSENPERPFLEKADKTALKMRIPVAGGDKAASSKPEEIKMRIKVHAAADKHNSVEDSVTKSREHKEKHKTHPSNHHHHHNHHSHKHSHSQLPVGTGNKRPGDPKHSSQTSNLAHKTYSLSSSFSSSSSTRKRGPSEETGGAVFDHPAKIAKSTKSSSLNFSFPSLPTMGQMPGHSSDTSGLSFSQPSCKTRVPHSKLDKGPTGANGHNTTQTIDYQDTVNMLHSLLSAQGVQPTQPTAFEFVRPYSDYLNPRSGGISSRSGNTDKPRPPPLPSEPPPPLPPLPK

CDK9/CyclinT1 protein = CDK9/CyclinT1 protein (Homo sapiens (Human), UniProt P50750); test: Enzyme activity assay of CDK9 protein inhibition in vitro, CDK9/CyclinT1
Sequence of CDK9/CyclinT1 protein (P50750 whole entry): as the sequence (P50750 whole entry, the tested form may be a part) above
Sequence of CDK9/CyclinT1 protein (O60563 whole entry partner): as the sequence (O60563 whole entry partner) above

[17] = system: gastrointestinal stromal tumor GIST-T1; settings: read-out: GI50 GIST-T1; incubated for 72 hours, Cell Titer-Glo
lymphoma cell WSU-DLCL2 [18] = settings: read-out: GI50 WSU-DLCL2; incubated for 72 hours, Cell Titer-Glo
[19] = system: cervical cancer cell HeLa; settings: read-out: GI50 HeLa; incubated for 72 hours, Cell Titer-Glo
[20] = Homo sapiens, MOLM-13, Table 2, read-out: GI50 MOLM13
[21] = Homo sapiens, HCT-116, incubated for 72 hours
[22] = Homo sapiens, DLD-1, incubated for 72 hours
[23] = Homo sapiens, MOLM-13, Table 1, read-out: GI50 MOLM 13
[24] = incubated for 72 hours, Cell Titer-Glo

Row | GI50 [4, 20] [nM] | SMILES | GI50 ([1]; Homo sapiens, MV4-11, 72 h) [nM] | GI50 [3] [nM] | GI50 ([6]; Homo sapiens, K562) [nM] | GI50 HepG2 CDK9 KI C20-1 [8] [nM] | GI50 ([2]; Table 3) [nM] | GI50 [4, 23] [nM] | GI50 ([9]; Homo sapiens, MOLM-14) [nM] | also measured
1 | 7.08 | COCCNC1CCC(Nc2nccc(-c3ccc4c(c3)C(C(C)C)(C(C)C)CNC4=O)n2)CC1 (stereo not drawn) [Compound 14, 4,4-diisopropyl-6-(2-(((1r,4r)-4-((2-methoxyethyl)amino)cyclohexyl)amino)pyrimidin-4-yl)-3,4-dihydroisoquinolin-1(2H)-one] | 17 | 8.26 | 26 |  |  |  |  | GI50 ([2]; Table 1): 23 nM; GI50 [5, 21]: 12 nM; GI50 [7, 22]: 63 nM
2 |  | CN1CCN(c2cccc(Nc3nccc(-c4ccc5c(c4)C(C)(C)CNC5=O)n3)c2)CC1 [Compound 37, 4,4-dimethyl-6-(2-((3-(4-methylpiperazin-1-yl)phenyl)amino)pyrimidin-4-yl)-3,4-dihydroisoquinolin-1(2H)-one] | < 1 | 3.05 | 31 | 74.8 | 27.8 | < 1 | < 1 | IC50 (CDK9): 49 nM
3 |  | CCc1cnn2c(NCc3ccc[n+]([O-])c3)cc(N3CCCC[C@H]3CCO)nc12 [Dinaciclib, reference compound] | 22 |  | 53 |  |  | 11 | 18 | GI50 (lymphoma cell WSU-DLCL2 [10]): 13 nM; GI50 [11]: 4 nM; GI50 [12]: 5 nM; GI50 ([13]; Homo sapiens, COV434, 72 h): 8 nM; GI50 [5, 21]: 15 nM; GI50 [14]: 16.5 nM; GI50 [7, 22]: 30 nM; GI50 [15]: 15 nM
4 | 0.845 | Cc1ccc(Nc2nccc(-c3ccc4c(c3)C(C)(C)CNC4=O)n2)cc1N1CCN(C)CC1 [Compound 82, 4,4-methyl-6-(2-((4-methyl-3-(4-methylpiperazin-1-yl)phenyl)amino)pyrimidin-4-yl)-dihydroisoquinolin-1(2H)-one] |  | 1.71 | 26 |  |  | < 1 | 0.8 | IC50 [16]: 105 nM; IC50 (CDK9/CyclinT1 protein): 2.6 nM
5 |  | COC[C@@H](C)NC1CCC(Nc2cc(-c3csc(NCC4(C#N)CCOCC4)n3)c(Cl)cn2)CC1 (stereo partly drawn) [JSH-009, reference compound] |  |  |  |  |  |  |  | GI50 [1, 24]: 6 nM; GI50 [13, 24]: 30 nM; IC50 (CDK9/CyclinT1 protein; read-out: CDK9/CyclinT1 Protein activity (IC50)): 29 nM; GI50 ([4]; Table 1, read-out: GI50 MOLM 13): 4 nM; GI50 ([5]; incubated for 72 hours): 23 nM; GI50 [17]: 34 nM; GI50 [6]: 9 nM; GI50 (lymphoma cell WSU-DLCL2 [18]): 16 nM; GI50 ([7]; incubated for 72 hours): 106 nM; GI50 [9]: 4 nM; GI50 [19]: 18 nM
6 |  | CC1(C)CNC(=O)c2ccc(-c3ccnc(Nc4cccc(N5CCCNCC5)c4)n3)cc21 [Compound 35, 6-(2-((3-(1,4-homopiperazin-1-yl)phenyl)amino)pyrimidin-4-yl)-4,4-dimethyl-3,4-dihydroisoquinolin-1(2H)-one] | < 1 | 1.69 | 25 | 138.5 | 87.4 | < 1 |  | GI50 [11]: 33 nM; GI50 [12]: 23 nM; GI50 ([13]; Homo sapiens, COV434, 72 h): < 1 nM; IC50 (CDK9): 300 nM
7 |  | COCCN[C@H]1CC[C@H](Nc2nccc(-c3ccc4c(c3)C(C(C)C)(C(C)C)CNC4=O)n2)CC1 [Compound 14, 4,4-diisopropyl-6-(2-(((1r,4r)-4-((2-methoxyethyl)amino)cyclohexyl)amino)pyrimidin-4-yl)-3,4-dihydroisoquinolin-1(2H)-one] |  |  |  |  |  |  |  | IC50 [16]: 98.6 nM

Row | SMILES | GI50 [4, 20] [nM] | GI50 ([1]; Homo sapiens, MV4-11, 72 h) [nM] | GI50 [3] [nM] | GI50 ([6]; Homo sapiens, K562) [nM] | GI50 HepG2 CDK9 KI C20-1 [8] [nM] | GI50 ([2]; Table 3) [nM] | GI50 [4, 23] [nM] | GI50 ([9]; Homo sapiens, MOLM-14) [nM] | also measured
8 | COc1cc(F)ccc1-c1cc(Nc2cc(CS(C)(=N)=O)ccn2)ncc1F (stereo not drawn) [BAY1251152, reference compound] | 38 | 27 | 1190 |  | >1000 | 36.1 |  | 40 | drug resistance on the drug resistant strain of liver cancer cell HepG2 ([8]; result in words): obvious drug resistance
